Test results as given in patent US20210236532A1, “THERAPEUTIC AGENT FOR FRONTOTEMPORAL LOBAR DEGENERATION, METHOD FOR SCREENING THERAPEUTIC AGENT FOR FRONTOTEMPORAL LOBAR DEGENERATION AND METHOD FOR TREATING FRONTOTEMPORAL LOBAR DEGENERATION” (National University Corporation Tokyo Medical and Dental …, priority 2018, published 2021).

What was measured:
Assay type in all cases: in vivo
[1] = tested on: PGRN-KI mice; experiment: Fear conditioning experiment (freezing reaction)
Experimental: (§1) The following two types of behavioral experiments (fear conditioning experiment and Morris water maze test) were performed, and an impaired cognitive response was found in the PGRN-KI mice of 12 weeks or older. Such an impaired response is a symptom similarly seen in frontotemporal lobar degeneration. It is to be noted that all behavioral tests are carried out according to the method indicated by Ito H. et al. (Mol Psychiatry. 2015 April; 20 (4): 459-471).
A fear conditioning experiment was performed with the PGRN-KI mice and control mice (C57BL/6J mice without the knock-in). Specifically, the mice received electrical stimulation (0.4 mA, 2 s) on their paws along with sound stimulation (65 dB white noise, 30 s). Twenty-four hours later, the frequency of the freezing reaction in the mice was measured when the mice were subjected to the sound stimulation without the electrical stimulation in the same chamber. […] This means that the cognitive response of the PGRN-KI mice was impaired as compared with the control mice. […]

[2] = tested on: PGRN-KI mice; experiment: Morris water maze test
Experimental: as §1
A Morris water maze test was performed with the PGRN-KI mice and control mice (C57BL/6J mice without the knock-in). Specifically, the mice received a 60-second trial four times per day for 5 days, and the time period taken for each mouse to reach the platform was measured. […] This means that the cognitive response of the PGRN-KI mice was impaired as compared with the control mice.
(§2) The knockdown of each gene was performed according to the following procedures: Lentiviral particles (2×10^5 titer units/100 μl) containing scrambled shRNA (sc-108080, manufactured by Santa Cruz Biotechnology), Tau-shRNA (sc-430402-V, manufactured by Santa Cruz Biotechnology), B-Raf shRNA (sc-63294-V, manufactured by Santa Cruz Biotechnology), or Tyro3-siRNA (iV037848, manufactured by ABM) were diluted to 1:4 with ACSF buffer (NaCl 125 mM; KCl 2.5 mM; NaH2PO4 1.25 mM; MgCl2 1 mM; CaCl2) 1 mM; NaHCO326 mM; and glucose 25 mM). […]

[3] = tested on: PGRN-KI mice; experiment: Morphological analysis of spines (two-photon excitation microscope, IMARIS)
Experimental: as §2, with “mM). Further, a plasmid vector (10 μg) containing scrambled shRNA (TG501653, manufactured by OriGene), PKCα-shRNA (TG501653, manufactured by OriGene), or Gas6-shRNA (sc-35451-SH, manufactured by Santa Cruz Biotechnology) was dissolved in 100 μl of in vivo-jetPEI (201-10G, manufactured by Polyplus-transfection).” for “mM).”
Images of dendrites from the mice (at 12 weeks of age) knocked down for each gene were acquired using a two-photon excitation microscope. In addition, the number of spines was measured using “IMARIS software” (IMARIS 7.2.2, manufactured by Bitplane GmbH). […]
Images of dendrites from the mice (at 12 weeks of age) in each administered group were acquired using a two-photon excitation microscope. In addition, the number of spines was measured using “IMARIS software” (IMARIS 7.2.2, manufactured by Bitplane GmbH). […]

[4] = PGRN-KI mice, treated vs untreated/unknocked-down PGRN-KI mice
[5] = control mice (C57BL/6J without the knock-in), with or without agent

Structure (SMILES): Cn1c2ccccc2c2c3c(c4c5ccccc5n(CCC#N)c4c21)CNC3=O [Go6976]
- cognitive response in the fear conditioning experiment [1, 4]: significantly improved
- cognitive response in the fear conditioning experiment [1, 5]: no change
- cognitive response in the Morris water maze test [2, 4]: significantly improved
- cognitive response in the Morris water maze test [2, 5]: no change
- number of spines ([3]; PGRN-KI mice at 12 weeks of age, treated vs untreated/unknocked-down PGRN-KI mice): markedly higher number of spines
- number of spines ([3]; control mice (C57BL/6J without the knock-in) at 12 weeks of age, with or without agent): no change
